We go through 10 compounds from patent US4925877A, “Physiologically active erbstatin analogue compounds and compositions” (Zaidanhojin Biseibutsu Kagaku Kenkyukai, priority 1986, dated 1990).

Values after ≈ are worked out from the molar mass of the structure shown. Read-outs that look alike come from different tables or passages of the source.

The test system of one test is Psudomonas aeruginosa A3. Kind of test: Antimicrobial activity, MIC by agar dilution method (Psudomonas aeruginosa A3). Conditions: read-out: MIC (Psudomonas aeruginosa A3). The format is cell-based.
Another test concerns L 1210 leukemia cells. Kind of test: Growth inhibition activity against cultured carcinoma cells (L 1210 leukemia cells). Conditions: Mus musculus, L1210, 72 h, read-out: L 1210 IC50 (50%-inhibition concentration against growth). The format is cell-based. The method, then: (B) Growth inhibition activity against cultured carcinoma cells:
After the incubation, the number of the cells was counted and the activity was evaluated.

Test [1] has as its target T1, tyrosine-specific protein-kinase (epidermal growth factor receptor-kinase, A-431 membrane fraction) (Homo sapiens, UniProt P00533).
T1 construct: a membrane fraction of human epidermal carcinoma cells A-431 was used; endogenous in cells; host or cells: A-431 human epidermal carcinoma cells, membrane fraction
Kind of test: TPK-I activity (inhibition of tyrosine-specific protein-kinase / epidermal growth factor receptor-kinase, 32P-ATP, A-431 membrane fraction). The format is biochemical. The method, then: 50 μl of the reaction mixture was sampled and absorbed to Wattman No. 3MM filter membrane and dipped in an ice-cooled TCA. After kept for 30 minutes, the filter membrane was taken out and washed out TCA, ethanol and ether, and the count of ^32 P as stuck to the said filter membrane was measured (a). The same reaction and treatment were carried out, where the test substance only was excluded, and the count of ^32 P on the filter was measured in the same manner (b). Further, the values as measured in the cases where the membrane fraction was excluded were (a') and (b'), respectively. Thus, the percentage of the inhibition of the epiderman growth factor receptor-kinase was calculated from the formula of […].
The TPK-I activity of typical compounds of the present invention was extremely high at a low concentration, as shown in the following Table.

In test [2] the test system is Staphylococcus aureus Smith. Kind of test: Antimicrobial activity, MIC by agar dilution method (Staphylococcus aureus Smith). The test is classed as cell-based. The note with it: read-out: MIC (Staphylococcus aureus Smith). (In agar dilution, organisms are placed on agar that contains the substance at set levels.)
Protocol: (§1) The minimum growth inhibition concentration (MIC) of the compounds of the present invention against various bacteria was measured by means of an agar dilution method using Muller-Hinton medium, which is shown in the following Table.
In a further test the test system is various bacteria. The note with it: MH435-A, earlier application; cited from earlier work.
A further test concerns cultured carcinoma cells. The note with it: MH435-A, earlier application; cited from earlier work.
The target in test [3] is T1, tyrosine-specific protein-kinase (epidermal growth factor receptor-kinase, A-431 membrane fraction). Conditions: MH435-A, earlier application; cited from earlier work.
Where [4] appears, read: agar dilution method, Muller-Hinton medium.
The mark [5] stands for this setting: L 1210 leukemia cells, 3 days, 37° C., 5% CO2.
[6] abbreviates: A-431 membrane fraction, EGF, histone, pH 7.4, 0° C., 30 minutes, read-out: TPK-I IC50 (converted).

T1 sequence (P00533 25-1210): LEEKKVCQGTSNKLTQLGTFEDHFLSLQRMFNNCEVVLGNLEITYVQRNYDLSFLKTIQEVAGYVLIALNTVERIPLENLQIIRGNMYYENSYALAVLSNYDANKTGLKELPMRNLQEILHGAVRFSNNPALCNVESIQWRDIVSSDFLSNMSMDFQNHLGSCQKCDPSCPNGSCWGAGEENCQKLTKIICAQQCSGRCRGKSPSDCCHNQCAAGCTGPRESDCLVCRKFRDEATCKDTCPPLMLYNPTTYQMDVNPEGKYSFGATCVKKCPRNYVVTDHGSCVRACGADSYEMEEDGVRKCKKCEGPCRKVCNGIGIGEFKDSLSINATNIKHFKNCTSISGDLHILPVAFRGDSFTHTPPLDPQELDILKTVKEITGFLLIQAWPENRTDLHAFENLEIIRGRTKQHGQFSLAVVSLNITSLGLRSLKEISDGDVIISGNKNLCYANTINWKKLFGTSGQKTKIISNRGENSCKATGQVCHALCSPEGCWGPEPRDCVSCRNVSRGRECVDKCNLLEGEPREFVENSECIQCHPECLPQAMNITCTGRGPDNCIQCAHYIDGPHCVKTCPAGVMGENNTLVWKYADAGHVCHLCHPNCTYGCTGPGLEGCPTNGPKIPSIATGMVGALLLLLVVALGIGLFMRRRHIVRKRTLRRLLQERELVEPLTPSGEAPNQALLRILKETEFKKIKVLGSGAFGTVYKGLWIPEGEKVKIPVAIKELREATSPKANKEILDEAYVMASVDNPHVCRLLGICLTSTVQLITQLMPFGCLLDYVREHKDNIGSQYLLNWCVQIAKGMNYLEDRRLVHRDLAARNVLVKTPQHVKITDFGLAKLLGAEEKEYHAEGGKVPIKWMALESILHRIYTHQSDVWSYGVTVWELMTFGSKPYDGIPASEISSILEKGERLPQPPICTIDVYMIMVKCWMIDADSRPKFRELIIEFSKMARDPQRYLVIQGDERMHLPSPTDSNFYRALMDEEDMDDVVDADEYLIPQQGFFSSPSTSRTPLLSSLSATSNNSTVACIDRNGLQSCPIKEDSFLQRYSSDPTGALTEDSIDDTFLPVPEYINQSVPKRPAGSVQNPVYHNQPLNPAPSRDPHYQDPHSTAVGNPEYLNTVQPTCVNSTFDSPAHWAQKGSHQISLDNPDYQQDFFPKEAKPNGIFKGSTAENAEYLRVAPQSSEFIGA
Protocol for Psudomonas aeruginosa A3: as §1

Turning to `[C-]#[N+]C=Cc1cc(Br)ccc1O` [Compound 2, 2-(5-bromo-2-hydroxyphenyl)vinylisocyanide], the MIC with Psudomonas aeruginosa A3 (setting [4]) came to 12.5 µg/mL (≈ 55.8 µM); in test [2] (setting [4]), 6.25 µg/mL (≈ 27.9 µM). In addition, the IC50 with L 1210 leukemia cells (setting [5]) is 0.25 µg/mL (≈ 1.12 µM); in test [1] (setting [6]), over 28.6 µM.
Regarding `[C-]#[N+]C=Cc1cc(OC)ccc1OC` [Compound 3, 2-(2,5-dimethoxyphenyl)vinylisocyanide], the MIC with Psudomonas aeruginosa A3 worked out at 25 µg/mL (≈ 132 µM); in test [2] it was 3.12 µg/mL (≈ 16.5 µM). Moreover, the IC50 with L 1210 leukemia cells is 0.65 µg/mL (≈ 3.44 µM); in test [1], over 52.9 µM.
In the case of `O=CNC=Cc1cc(Br)ccc1O` [Compound 9, (2-formamidovinyl)-5-bromo-2-hydroxybenzene], the MIC was over 50 µg/mL in the test on Psudomonas aeruginosa A3 (setting [4]) and 100 µg/mL (≈ 413 µM) in test [2] (setting [4]). Moreover, the IC50 in the test with L 1210 leukemia cells (setting [5]) was 12 µg/mL (≈ 49.6 µM); in test [1] (setting [6]) it was over 26.4 µM.
For `COc1ccc(OC)c(C=CNC=O)c1` [Compound 10, (2-formamidovinyl)-2,5-dimethoxybenzene], in that order: over 100 µg/mL, over 100 µg/mL, 62 µg/mL (≈ 299 µM) and over 145 µM.
For `COc1ccc(O)c(C=CNC=O)c1` [Compound 11, (2-formamidovinyl)-2-hydroxy-5methoxybenzene], in that order: over 50 µg/mL, over 100 µg/mL, 23 µg/mL (≈ 119 µM) and over 33.1 µM.
In the case of `O=CNC=Cc1ccccc1O` [Compound 12, (2-formamidovinyl)-2-hydroxybenzene], the values for the MIC (with Psudomonas aeruginosa A3 (setting [4]); in test [2] (setting [4])) were over 50 µg/mL and over 100 µg/mL, respectively. Further, in the test on L 1210 leukemia cells (setting [5]), the IC50 stood at 30 µg/mL (≈ 184 µM).
Regarding `O=CNC=Cc1cccc(O)c1O` [Compound 13, (2-formamidovinyl)-2,3-dihydroxybenzene], the MIC (in the test with Psudomonas aeruginosa A3 (setting [4]); in test [2] (setting [4])) was 100 µg/mL (≈ 558 µM) throughout. The figures for the IC50 (in the test with L 1210 leukemia cells (setting [5]); in test [1] (setting [6])) were 2.2 µg/mL (≈ 12.3 µM) and 1.67 µM, respectively.
Regarding `O=CNC=Cc1ccc(O)c(O)c1` [Compound 14, (2-formamidovinyl)-3,4-dihydroxybenzene], the MIC is 25 µg/mL (≈ 140 µM) with Psudomonas aeruginosa A3 (setting [4]) and over 50 µg/mL in test [2] (setting [4]). The IC50 is 22 µg/mL (≈ 123 µM) with L 1210 leukemia cells (setting [5]) and 7.26 µM in test [1] (setting [6]).
Turning to `CC(=O)NC=Cc1cc(O)ccc1O` [Compound 18, (2-acetamidovinyl)-2,5-dihydroxybenzene], the IC50 in the test with L 1210 leukemia cells (setting [5]) was 3 µg/mL (≈ 15.5 µM); in test [1] (setting [6]), 15.5 µM.
In the case of `O=CNC=Cc1cc(O)ccc1O` [MH435-A], in the test on various bacteria, the “antimicrobial activity (in words)” value is given as “has antimicrobial activity”. Further, the “antitumor activity (in words)” value in the test with cultured carcinoma cells was “antitumor activity”. Further, the “inhibition of tyrosine-specific protein-kinase activity (in words)” value in test [3] was “can inhibit the said protein-kinase activity in a low concentration”.

As usually defined, the MIC is the lowest concentration found to suppress growth.
